Measurements: patent US11332492B2, “CD73 inhibitors and therapeutic uses thereof” (Jiangsu Hengrui Medicine Co., Ltd., priority 2018, dated 2022)

system: human peripheral blood mononuclear cells (PBMCs); test: IFNγ cytokine production in human PBMCs with AMP and CD3/CD28 antibody beads (HTRF); assay type: cell-based; conditions: compound 10 μM, 50 μM AMP, 72 hours
Method: Test Example 2 Determination of Compound of the Present Invention Modulates Cellular Immune Function by IFNγ Cytokine Production
Lymphocyte medium and TexMACS medium were incubated in a water bath at 37° C. 10 mL of incubated lymphocyte medium was added to a 50 mL conical tube. The cells were quickly thawed in a 37° C. water bath and transferred to a 50 ml tube and the tube gently swirled. The cell suspension was centrifuged at 1100 rpm for 10 minutes at room temperature. The supernatant was removed, and the cell pellet gently resuspended in 10 mL of TexMACS medium. The cells were counted to make 5×10^5 cells/ml. 100 μL of 5×10^5 cells/ml of PBMCs seeds, inserted into a 96-well plate (cell density of 50,000 cells/well), and the most outer edge wells of the 96-well plate were filled with water and were not used for the test. […] Read the values of 665 nm and 620 nm on a PHERAstar FSX Multilabel Reader.
Calculated ratio=(signal at 665 nm/signal at 620 nm)×10^4, which reflected the “raw signal”. […] The concentration of IFNγ cytokine of each sample corresponding to the standard curve was calculated. […]
The production of IFNγ cytokines by the compounds of the present invention was measured by the above test. […]

With `O=P(O)(O)COC[C@H]1O[C@@H](n2ncc3c(N4CC5(CCCCC5)C4)nc(Cl)nc32)[C@H](O)[C@@H]1O` [Example 1, ((((2R,3S,4R,5R)-5-(6-chloro-4-(2-azaspiro[3.5]nonan-2-yl)-1H-pyrazolo[3,4-d]pyrimidin-1-yl)-3,4-dihydroxytetrahydrofuran-2-yl)methoxy)methyl)phosphonic acid] as the compound, how does the “Response rate of IFNγ cytokines by a compound (fold) as compared to vehicle control (DMSO)” value read?
Its value is 4.1 folds.

How did the “Response rate of IFNγ cytokines by a compound (fold) as compared to vehicle control (DMSO)” value turn out when `O=P(O)(O)COC[C@H]1O[C@@H](n2ncc3c(N4CC5(CCc6ccccc65)C4)nc(Cl)nc32)[C@H](O)[C@@H]1O` [Example 2, ((((2R,3S,4R,5R)-5-(6-chloro-4-(2′,3′-dihydrospiro[azetidine-3,1′-inden]-1-yl)-1H-pyrazolo[3,4-d]pyrimidin-1-yl)-3,4-dihydroxytetrahydrofuran-2-yl)methoxy)methyl)phosphonic acid] was run?
The value was 4.3 folds.

molecular target: recombinant human 5′-nucleotidase (CD73) (Homo sapiens (Human), UniProt P21589); test: Inhibition of CD73 enzyme activity in vitro (Malachite Green phosphate detection, CMP substrate); conditions: 0.34 nM recombinant human CD73, 2 h pre-incubation at 37° C., 45 μM CMP; read-out: IC50 values of biochemical inhibition of CD73 enzymatic activity
Method: Test Example 1, Test of the Compounds of the Present Invention for their Inhibition on CD73 Enzyme Activity In Vitro
CD73 enzyme, an ecto-5′-Nucleotidase, converts extracellular nucleoside-5′-monophosphates to nucleosides, with AMP or CMP as the preferred substrate. In this assay, recombinant human CD73 expressed from a Chinese hamster ovary cell line (R&D Systems) was used to convert cytidine monophosphate (CMP) to cytidine and phosphate. Before adding substrate, CD73 enzyme was pre-incubated with compounds for 2 hours. The amount of phosphate was then measured by Malachite Green Phosphate Detection Kit. The experimental method is summarized as follows:
Compounds are first dissolved in DMSO to 10 mM as a stock solution. When determining the IC50 of the compound, prepare 3-fold serial dilutions with a highest concentration of 125 μM for a total of 12 concentration points and ensure each dilution containing equal amount of DMSO. In each well of 384-well plate, 0.34 nM of recombinant human 5′-nucleotidase (CD73) was pre-incubated at 37° C. for 2 hours with the compounds tested in assay buffer containing 20 mM HEPES buffer (pH 7.4), 137 mM NaCl, 0.001% Tween 20. The final reaction volume of the reaction in each well was 12 μL. The highest concentration of compound was 125 μM and the DMSO concentration was 1.25%. After pre-incubation, 3 μL of CMP dissolved in assay buffer was added to each reaction. The final CMP concentration was 45 μM. The reaction was incubated at 37° C. for 15 minutes. Then 3 μL of Malachite Green Reagent A was added to each reaction. Spin the plate briefly in centrifuge for 30 seconds. After incubation for additional 10 minutes at room temperature, 3 μL of malachite green Reagent B was added to each reaction. Spin the plate briefly in centrifuge for 30 seconds. After 20 minutes of incubation at room temperature, the signal was read on a TECAN reader at OD620. The reaction containing CD73 enzyme, substrate CMP and DMSO (no compound) is used as an assay positive control while the reaction containing substrate CMP and DMSO without the CD73 enzyme as an assay negative control. IC50 values were calculated by plotting the logarithm of the compound concentration and the percent inhibition using the appropriate program in GraphPad Prism.
The biochemical inhibitions of CD73 enzymatic activities by the compounds of the present invention were determined by the assay described above, and the resulting IC50 values are shown in Table 1.

Chain of recombinant human 5′-nucleotidase (CD73) (P21589 27-574): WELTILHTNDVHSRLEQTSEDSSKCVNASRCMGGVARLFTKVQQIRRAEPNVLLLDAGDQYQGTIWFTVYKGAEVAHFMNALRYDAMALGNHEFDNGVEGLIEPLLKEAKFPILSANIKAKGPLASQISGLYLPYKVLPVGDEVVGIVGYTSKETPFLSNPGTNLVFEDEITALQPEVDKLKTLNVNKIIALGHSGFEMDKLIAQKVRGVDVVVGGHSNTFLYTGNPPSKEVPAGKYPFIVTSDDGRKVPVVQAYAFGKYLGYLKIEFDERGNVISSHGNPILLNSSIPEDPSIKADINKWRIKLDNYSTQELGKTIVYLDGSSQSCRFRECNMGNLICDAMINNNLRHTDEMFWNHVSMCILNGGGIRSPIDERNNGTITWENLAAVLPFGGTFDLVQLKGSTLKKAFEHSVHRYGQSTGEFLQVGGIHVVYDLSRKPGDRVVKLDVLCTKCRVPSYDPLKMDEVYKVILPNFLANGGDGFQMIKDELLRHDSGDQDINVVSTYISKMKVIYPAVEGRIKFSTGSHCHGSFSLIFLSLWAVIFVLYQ

For `O=P(O)(O)COC[C@H]1O[C@@H](n2ncc3c(N4CC5(CCCCC5)C4)nc(Cl)nc32)[C@H](O)[C@@H]1O` [Example 1, ((((2R,3S,4R,5R)-5-(6-chloro-4-(2-azaspiro[3.5]nonan-2-yl)-1H-pyrazolo[3,4-d]pyrimidin-1-yl)-3,4-dihydroxytetrahydrofuran-2-yl)methoxy)methyl)phosphonic acid], which IC50 is on record?
The IC50 was 0.11 nM.

`O=P(O)(O)COC[C@H]1O[C@@H](n2ncc3c(N4CC5(CCc6ccccc65)C4)nc(Cl)nc32)[C@H](O)[C@@H]1O` [Example 2, ((((2R,3S,4R,5R)-5-(6-chloro-4-(2′,3′-dihydrospiro[azetidine-3,1′-inden]-1-yl)-1H-pyrazolo[3,4-d]pyrimidin-1-yl)-3,4-dihydroxytetrahydrofuran-2-yl)methoxy)methyl)phosphonic acid] was tested. Which IC50 did it give?
Its IC50 is 0.013 nM.

`CC(C)OC(=O)OCOP(=O)(O)COC[C@H]1O[C@@H](n2ncc3c(N4CC5(CCc6ccccc65)C4)nc(Cl)nc32)[C@H](O)[C@@H]1O` [Example 3, ((((((2R,3S,4R,5R)-5-(6-chloro-4-(2′,3′-dihydrospiro[azetidine-3,1′-inden]-1-yl)-1H-pyrazolo[3,4-d]pyrimidin-1-yl)-3,4-dihydroxytetrahydrofuran-2-yl)methoxy)methyl)(hydroxy)phosphoryl)oxy)methyl isopropyl carbonate] was tested. Which IC50 did it give?
The IC50 was 2.1 nM.

With `CC(C)OC(=O)OCOP(=O)(COC[C@H]1O[C@@H](n2ncc3c(N4CC5(CCc6ccccc65)C4)nc(Cl)nc32)[C@H](O)[C@@H]1O)OCOC(=O)OC(C)C` [Example 4, ((((((2R,3S,4R,5R)-5-(6-chloro-4-(2′,3′-dihydrospiro[azetidine-3,1′-inden]-1-yl)-1H-pyrazolo[3,4-d]pyrimidin-1-yl)-3,4-dihydroxytetrahydrofuran-2-yl)methoxy)methyl)phosphoryl)bis(oxy))bis(methylene) diisopropyl decarbonate] as the compound, how does the IC50 read?
The IC50 was 710 nM.

How did the IC50 turn out when `O=P(O)(O)COC[C@H]1O[C@@H](n2ncc3c(N4CC5(C4)OCc4cc(Cl)ccc45)nc(Cl)nc32)[C@H](O)[C@@H]1O` [Example 5, ((((2R,3S,4R,5R)-5-(6-chloro-4-(5′-chloro-3′H-spiro[azetidine-3,1′-isobenzofuran]-1-yl)-1H-pyrazolo[3,4-d]pyrimidin-1-yl)-3,4-dihydroxytetrahydrofuran-2-yl)methoxy)methyl)phosphonic acid] was run?
Its IC50 is 0.074 nM.

`O=P(O)(O)COC[C@H]1O[C@@H](n2ncc3c(N4CC5(CCc6ccc(F)cc65)C4)nc(Cl)nc32)[C@H](O)[C@@H]1O` [Example 6, ((((2R,3S,4R,5R)-5-(6-chloro-4-(6′-fluoro-2′,3′-dihydrospiro[azetidine-3,1′-inden]-1-yl)-1H-pyrazolo[3,4-d]pyrimidin-1-yl)-3,4-dihydroxytetrahydrofuran-2-yl)methoxy)methyl)phosphonic acid] was tested. Which IC50 did it give?
Its IC50 is 0.25 nM.

For `COc1ccc2c(c1)CCC21CN(c2nc(Cl)nc3c2cnn3[C@@H]2O[C@H](COCP(=O)(O)O)[C@@H](O)[C@H]2O)C1` [Example 7, ((((2R,3S,4R,5R)-5-(6-chloro-4-(5′-methoxy-2′,3′-dihydrospiro[azetidine-3,1′-inden]-1-yl)-1H-pyrazolo[3,4-d]pyrimidin-1-yl)-3,4-dihydroxytetrahydrofuran-2-yl)methoxy)methyl)phosphonic acid], which IC50 is on record?
The IC50 was 0.13 nM.

How did the IC50 turn out when `CC(OC(=O)C(C)(C)C)OP(=O)(O)COC[C@H]1O[C@@H](n2ncc3c(N4CC5(CCc6ccccc65)C4)nc(Cl)nc32)[C@H](O)[C@@H]1O` (stereo partly drawn) [Example 9, 1-((((((2R,3S,4R,5R)-5-(6-chloro-4-(2′,3′-dihydrospiro[azetidine-3,1′-inden]-1-yl)-1H-pyrazolo[3,4-d]pyrimidin-1-yl)-3,4-dihydroxytetrahydrofuran-2-yl)methoxy)methyl)(hydroxy)phosphoryl)oxy)ethyl pivalate] was run?
Its IC50 is 8.5 nM.

How did the IC50 turn out when `O=P(COC[C@H]1O[C@@H](n2ncc3c(N4CC5(CCc6ccccc65)C4)nc(Cl)nc32)[C@H](O)[C@@H]1O)(Oc1ccccc1)Oc1ccccc1` [Example 10, diphenyl((((2R,3S,4R,5R)-5-(6-chloro-4-(2′,3′-dihydrospiro[azetidine-3,1′-inden]-1-yl)-1H-pyrazolo[3,4-d]pyrimidin-1-yl)-3,4-dihydroxytetrahydrofuran-2-yl)methoxy)methyl)phosphonate] was run?
The IC50 was 7.6 nM.

Which IC50 does the source give for `O=P(O)(COC[C@H]1O[C@@H](n2ncc3c(N4CC5(CCc6ccccc65)C4)nc(Cl)nc32)[C@H](O)[C@@H]1O)Oc1ccccc1` [Example 11, phenyl hydrogen ((((2R,3S,4R,5R)-5-(6-chloro-4-(2′,3′-dihydrospiro[azetidine-3,1′-inden]-1-yl)-1H-pyrazolo[3,4-d]pyrimidin-1-yl)-3,4-dihydroxytetrahydrofuran-2-yl)methoxy)methyl)phosphonate] here?
Its IC50 is 0.9 nM.

For `O=P(O)(O)Cc1cccc(OC[C@H]2O[C@@H](n3ncc4c(N5CC6(CCCCC6)C5)nc(Cl)nc43)[C@H](O)[C@@H]2O)c1` [Example 12, (3-(((2R,3S,4R,5R)-5-(6-chloro-4-(2-azaspiro[3.5]nonan-2-yl)-1H-pyrazolo[3,4-d]pyrimidin-1-yl)-3,4-dihydroxytetrahydrofuran-2-yl)methoxy)benzyl)phosphonic acid], which IC50 is on record?
The IC50 was 300 nM.
